Legend:
[1] = biological target: T1, Dual specificity tyrosine-phosphorylation-regulated kinase 3 (Homo sapiens, UniProt O43781); test: biochemical; assay type: cell-based, Sf9
T1 sequence (O43781 whole entry): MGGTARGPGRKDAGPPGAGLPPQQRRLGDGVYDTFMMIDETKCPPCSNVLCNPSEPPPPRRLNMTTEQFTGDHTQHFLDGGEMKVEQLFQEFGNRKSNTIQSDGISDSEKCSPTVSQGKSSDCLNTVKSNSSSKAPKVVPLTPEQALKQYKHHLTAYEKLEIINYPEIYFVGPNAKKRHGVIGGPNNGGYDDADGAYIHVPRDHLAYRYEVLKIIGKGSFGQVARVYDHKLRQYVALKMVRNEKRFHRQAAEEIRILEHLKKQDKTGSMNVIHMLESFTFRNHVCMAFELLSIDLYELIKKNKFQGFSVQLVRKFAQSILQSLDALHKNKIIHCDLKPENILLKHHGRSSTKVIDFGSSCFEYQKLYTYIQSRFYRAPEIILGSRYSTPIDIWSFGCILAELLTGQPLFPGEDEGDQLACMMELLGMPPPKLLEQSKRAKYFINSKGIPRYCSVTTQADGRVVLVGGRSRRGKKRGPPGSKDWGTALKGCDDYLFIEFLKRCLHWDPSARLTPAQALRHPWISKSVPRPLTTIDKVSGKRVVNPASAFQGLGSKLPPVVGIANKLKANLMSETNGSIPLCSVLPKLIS

[2] = biological target: Dual specificity protein kinase CLK2 (Homo sapiens, UniProt P49760); test: biochemical
Chain of Dual specificity protein kinase CLK2 (P49760 whole entry): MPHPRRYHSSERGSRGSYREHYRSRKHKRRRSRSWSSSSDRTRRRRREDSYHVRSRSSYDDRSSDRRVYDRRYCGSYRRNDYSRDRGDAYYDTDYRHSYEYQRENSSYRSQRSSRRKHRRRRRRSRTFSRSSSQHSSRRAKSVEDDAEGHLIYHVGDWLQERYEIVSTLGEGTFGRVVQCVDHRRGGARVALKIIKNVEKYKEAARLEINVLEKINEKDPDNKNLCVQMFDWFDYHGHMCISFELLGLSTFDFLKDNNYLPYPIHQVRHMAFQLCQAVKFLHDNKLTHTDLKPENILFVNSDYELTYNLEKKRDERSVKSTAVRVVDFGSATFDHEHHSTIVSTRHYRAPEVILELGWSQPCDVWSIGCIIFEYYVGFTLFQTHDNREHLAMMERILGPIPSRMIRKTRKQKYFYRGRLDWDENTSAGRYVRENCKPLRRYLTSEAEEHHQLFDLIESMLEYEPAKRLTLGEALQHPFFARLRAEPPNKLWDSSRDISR

[3] = biological target: T2, Dual specificity tyrosine-phosphorylation-regulated kinase 1A (Homo sapiens, UniProt Q13627)
[4] = biological target: T3, Dual specificity protein kinase CLK1 (Homo sapiens, UniProt P49759); test: biochemical; assay type: cell-based, Sf9; conditions: read-out: IC50
T3 sequence (P49759 whole entry): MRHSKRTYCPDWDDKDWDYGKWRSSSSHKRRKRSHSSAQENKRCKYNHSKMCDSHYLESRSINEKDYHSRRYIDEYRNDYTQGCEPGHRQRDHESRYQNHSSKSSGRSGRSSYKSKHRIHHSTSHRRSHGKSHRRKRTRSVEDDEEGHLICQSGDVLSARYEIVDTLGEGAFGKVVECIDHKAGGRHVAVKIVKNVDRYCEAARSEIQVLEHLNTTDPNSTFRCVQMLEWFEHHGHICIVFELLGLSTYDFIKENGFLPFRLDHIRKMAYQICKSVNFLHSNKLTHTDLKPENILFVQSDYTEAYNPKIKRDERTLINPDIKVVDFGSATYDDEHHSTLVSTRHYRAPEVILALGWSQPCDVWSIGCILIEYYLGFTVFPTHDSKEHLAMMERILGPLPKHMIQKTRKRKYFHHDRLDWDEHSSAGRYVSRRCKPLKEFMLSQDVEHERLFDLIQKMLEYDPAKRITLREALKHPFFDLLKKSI

[5] = biological target: T3, Dual specificity protein kinase CLK1; test: biochemical; assay type: cell-based, Sf9
[6] = biological target: Cyclin-dependent kinase 5/CDK5 activator 1 (Homo sapiens, UniProt Q00535); test: biochemical; assay type: cell-based, Sf9
Chain of Cyclin-dependent kinase 5/CDK5 activator 1 (Q00535 whole entry): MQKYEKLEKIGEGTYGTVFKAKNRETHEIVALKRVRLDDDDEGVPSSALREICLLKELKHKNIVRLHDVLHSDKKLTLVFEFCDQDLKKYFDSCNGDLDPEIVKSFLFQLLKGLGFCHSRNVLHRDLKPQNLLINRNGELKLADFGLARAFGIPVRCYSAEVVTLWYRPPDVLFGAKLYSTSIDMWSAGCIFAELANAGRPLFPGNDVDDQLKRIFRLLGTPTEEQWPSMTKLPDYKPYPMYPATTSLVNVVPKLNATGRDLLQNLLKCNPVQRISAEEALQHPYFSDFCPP
Chain of Cyclin-dependent kinase 5/CDK5 activator 1 (Q15078 whole entry, further chain): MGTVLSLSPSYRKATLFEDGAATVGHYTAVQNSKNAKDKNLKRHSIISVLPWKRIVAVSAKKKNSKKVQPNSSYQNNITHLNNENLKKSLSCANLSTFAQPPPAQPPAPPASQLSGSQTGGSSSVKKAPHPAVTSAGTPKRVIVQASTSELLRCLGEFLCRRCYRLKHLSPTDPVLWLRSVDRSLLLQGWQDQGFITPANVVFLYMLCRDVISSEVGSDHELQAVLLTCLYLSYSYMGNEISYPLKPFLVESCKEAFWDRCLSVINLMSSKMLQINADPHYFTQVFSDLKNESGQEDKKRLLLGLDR

[7] = biological target: T4, Dual specificity tyrosine-phosphorylation-regulated kinase 2 (Homo sapiens, UniProt Q92630); test: biochemical; assay type: cell-based, Sf9
T4 sequence (Q92630 whole entry): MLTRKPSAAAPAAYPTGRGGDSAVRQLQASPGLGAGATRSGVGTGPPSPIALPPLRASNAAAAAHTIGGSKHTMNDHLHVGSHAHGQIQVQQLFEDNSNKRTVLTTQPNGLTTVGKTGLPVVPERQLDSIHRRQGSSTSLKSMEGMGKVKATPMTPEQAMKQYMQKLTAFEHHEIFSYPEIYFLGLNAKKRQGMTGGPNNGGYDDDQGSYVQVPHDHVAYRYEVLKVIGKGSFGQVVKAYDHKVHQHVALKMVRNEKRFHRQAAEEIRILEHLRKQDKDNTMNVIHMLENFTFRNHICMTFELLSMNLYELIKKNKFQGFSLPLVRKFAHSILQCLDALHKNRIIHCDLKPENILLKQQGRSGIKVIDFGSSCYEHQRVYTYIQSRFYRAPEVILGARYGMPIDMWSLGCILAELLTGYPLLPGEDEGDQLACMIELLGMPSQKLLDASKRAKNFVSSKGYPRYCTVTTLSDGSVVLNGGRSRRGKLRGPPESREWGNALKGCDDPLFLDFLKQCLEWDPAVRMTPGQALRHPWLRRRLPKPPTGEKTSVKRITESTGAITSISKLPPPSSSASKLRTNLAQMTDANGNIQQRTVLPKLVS

[8] = biological target: Casein kinase I isoform epsilon (Homo sapiens, UniProt P49674); test: biochemical; assay type: cell-based, Sf9
Chain of Casein kinase I isoform epsilon (P49674 whole entry, canonical isoform): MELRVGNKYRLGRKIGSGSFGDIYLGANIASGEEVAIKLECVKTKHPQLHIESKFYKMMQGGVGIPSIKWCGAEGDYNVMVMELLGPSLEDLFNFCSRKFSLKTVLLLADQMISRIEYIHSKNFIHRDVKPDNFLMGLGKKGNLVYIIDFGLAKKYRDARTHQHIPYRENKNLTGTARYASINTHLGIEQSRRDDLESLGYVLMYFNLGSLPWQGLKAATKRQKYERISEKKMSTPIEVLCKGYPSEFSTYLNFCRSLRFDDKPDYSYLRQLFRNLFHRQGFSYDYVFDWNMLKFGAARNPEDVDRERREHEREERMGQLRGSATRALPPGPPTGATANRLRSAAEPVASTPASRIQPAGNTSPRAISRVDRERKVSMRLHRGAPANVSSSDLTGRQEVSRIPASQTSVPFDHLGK

in vitro = conditions: mouse, ht-22
[9] = biological target: T2, Dual specificity tyrosine-phosphorylation-regulated kinase 1A; test: biochemical
[10] = biological target: Dual specificity protein kinase CLK3 (Homo sapiens, UniProt P49761); test: biochemical; assay type: cell-based, Sf9
Chain of Dual specificity protein kinase CLK3 (P49761 whole entry): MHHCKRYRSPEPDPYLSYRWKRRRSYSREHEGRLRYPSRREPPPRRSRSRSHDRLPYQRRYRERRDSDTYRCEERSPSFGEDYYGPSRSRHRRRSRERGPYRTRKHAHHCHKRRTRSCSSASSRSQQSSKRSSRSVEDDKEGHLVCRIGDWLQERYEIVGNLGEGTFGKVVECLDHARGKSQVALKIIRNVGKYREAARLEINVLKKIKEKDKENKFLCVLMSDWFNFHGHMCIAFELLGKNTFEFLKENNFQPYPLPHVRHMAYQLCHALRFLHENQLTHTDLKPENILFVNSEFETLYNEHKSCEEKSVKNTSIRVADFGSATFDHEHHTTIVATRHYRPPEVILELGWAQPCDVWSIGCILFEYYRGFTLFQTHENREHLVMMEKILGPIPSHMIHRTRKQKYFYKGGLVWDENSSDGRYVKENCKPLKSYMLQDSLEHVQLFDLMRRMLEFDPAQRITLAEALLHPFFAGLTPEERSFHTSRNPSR

[11] = biological target: Glycogen synthase kinase-3 beta (Homo sapiens, UniProt P49841); test: biochemical; assay type: cell-based, Sf9
Chain of Glycogen synthase kinase-3 beta (P49841 whole entry): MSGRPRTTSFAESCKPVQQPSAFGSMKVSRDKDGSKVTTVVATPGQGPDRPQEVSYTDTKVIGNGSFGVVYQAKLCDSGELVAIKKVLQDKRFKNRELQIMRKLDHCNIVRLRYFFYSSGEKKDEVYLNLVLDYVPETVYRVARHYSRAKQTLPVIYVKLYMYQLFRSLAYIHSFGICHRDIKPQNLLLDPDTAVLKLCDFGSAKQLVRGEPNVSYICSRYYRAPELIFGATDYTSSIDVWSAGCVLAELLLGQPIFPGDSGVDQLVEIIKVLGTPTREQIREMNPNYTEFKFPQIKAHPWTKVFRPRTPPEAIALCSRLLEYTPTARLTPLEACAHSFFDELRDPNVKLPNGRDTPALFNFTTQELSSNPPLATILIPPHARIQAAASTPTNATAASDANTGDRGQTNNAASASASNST

[12] = biological target: Dual specificity protein kinase CLK4 (Homo sapiens, UniProt Q9HAZ1); test: biochemical
Chain of Dual specificity protein kinase CLK4 (Q9HAZ1 whole entry): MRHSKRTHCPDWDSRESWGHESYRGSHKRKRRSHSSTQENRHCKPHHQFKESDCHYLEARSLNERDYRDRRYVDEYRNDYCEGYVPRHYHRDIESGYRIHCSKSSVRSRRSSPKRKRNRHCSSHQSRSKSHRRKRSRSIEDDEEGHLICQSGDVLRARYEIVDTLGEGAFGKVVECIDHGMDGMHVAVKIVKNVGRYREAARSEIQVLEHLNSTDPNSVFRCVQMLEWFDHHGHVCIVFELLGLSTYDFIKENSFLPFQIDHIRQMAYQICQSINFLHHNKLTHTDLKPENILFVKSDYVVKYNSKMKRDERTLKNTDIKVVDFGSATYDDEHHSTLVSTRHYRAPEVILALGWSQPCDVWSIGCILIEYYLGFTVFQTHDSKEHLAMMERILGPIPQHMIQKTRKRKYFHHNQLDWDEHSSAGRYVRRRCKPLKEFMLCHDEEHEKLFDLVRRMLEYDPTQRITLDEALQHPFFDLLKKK

[13] = biological target: T5, Dual specificity tyrosine-phosphorylation-regulated kinase 4 (Homo sapiens, UniProt Q9NR20); test: biochemical; assay type: cell-based, Sf9
T5 sequence (Q9NR20 whole entry): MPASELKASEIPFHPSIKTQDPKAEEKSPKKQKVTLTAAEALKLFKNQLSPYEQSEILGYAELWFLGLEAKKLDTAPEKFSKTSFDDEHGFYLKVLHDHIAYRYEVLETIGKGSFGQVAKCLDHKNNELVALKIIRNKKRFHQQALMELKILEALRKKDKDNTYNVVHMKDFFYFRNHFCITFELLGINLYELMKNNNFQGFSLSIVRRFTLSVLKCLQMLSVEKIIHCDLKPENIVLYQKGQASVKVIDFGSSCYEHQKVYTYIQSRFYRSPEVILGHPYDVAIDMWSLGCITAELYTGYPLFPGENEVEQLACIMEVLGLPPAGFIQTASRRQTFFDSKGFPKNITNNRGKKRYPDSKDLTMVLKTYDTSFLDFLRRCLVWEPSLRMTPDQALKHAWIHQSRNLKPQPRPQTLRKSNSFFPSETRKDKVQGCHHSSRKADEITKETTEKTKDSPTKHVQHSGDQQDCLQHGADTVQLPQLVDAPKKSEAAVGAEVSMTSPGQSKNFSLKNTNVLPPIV

Row | SMILES | IC50 [1] [µM] | IC50 [2] [µM] | IC50 [3] [µM] | IC50 [4] [µM] | IC50 [5] [µM] | IC50 [6] [µM] | IC50 [7] [µM] | IC50 [8] [µM] | IC50 at 48 h (in vitro) [µM] | IC50 [9] [µM] | IC50 [10] [µM] | IC50 [11] [µM] | IC50 [12] [µM] | IC50 [13] [µM]
1 | O=C(O[C@@H]1Cc2c(O)cc(O)cc2O[C@@H]1c1cc(O)c(O)c(O)c1)c1cc(O)c(O)c(O)c1 [EPIGALOCATECHIN GALLATE] | 1.62 | 1.32 | 0.766 | > 10 | 0.0716 | 0.431 | 2 | 0.365 | 23.8 | 0.491 | 2.58 | 6.27 | 0.368 | 5.2
2 | CN1CCN(C(=O)C(C)(C)c2ccc(C(=O)Cc3cn4cc(-c5ccncc5)ccc4n3)cc2)CC1 | > 10 | 0.147 | 0.0728 | 0.121 | 0.107 | > 10 | > 10 | > 10 | 7.9 | 0.253 | 0.74 | > 10 | 0.0491 | > 10
3 | O=C1Nc2cc(S(=O)(=O)Cc3c(Cl)cccc3Cl)ccc2S/C1=C\c1ccc(O)c([N+](=O)[O-])c1 | > 10 | > 10 |  |  | 6.07 | > 10 | 1.75 | 4.38 | 1 | 3.09 | > 10 | > 10 | > 10 | > 10
4 | CCOc1ccc2nc(N3CCCN(C(=S)Nc4ccccc4F)CC3)c(C#N)cc2c1 | > 10 | > 10 |  |  | > 10 | > 10 | > 10 | > 10 | > 100 | > 10 | > 10 | > 10 | > 10 | > 10

Source: ChEMBL document CHEMBL5247649, “Comparative Efficacy and Selectivity of Pharmacological Inhibitors of DYRK and CLK Protein Kinases” (J Med Chem, 2023)
